Measured values: patent US20210308133A1, “METHODS AND COMPOSITIONS FOR INHIBITING MUSCLE WASTING” (THE BOARD OF REGENTS OF THE UNIVERSITY OF TEXAS SYSTEM, priority 2020, published 2021)

Key:
[1] = tested on: LLC tumor-bearing mice; assay: muscle wasting in LLC tumor-bearing mice; format: in vivo; details: 0.5 mg/kg/day i.p. from day 7 for 2 weeks
Protocol: Mice were euthanized on day 21. The tumor was isolated and weighed, and then the net body weight was measured. Muscle samples were collected immediately for analyses of muscle wasting. […] Catabolic markers in TA muscle lysates were analyzed by Western blotting. […] Grip strength was measured on the day of euthanasia. […] H&E-stained TA cross sections were analyzed for the myofiber cross-sectional area. * signifies a statistically significant difference (p<0.05) determined by one-way ANOVA (FIGS. 5A-E) or Chi-square test (FIG. 5F).
Animal use. Experimental protocols were pre-approved by the institutional Animal Welfare Committee at the University of Texas Health Science Center at Houston. LLC cells (1×10^6 in […]) were injected subcutaneously into the flanks of 8-week-old male C57B16 mice, TLR4^−/− mice in the C57BL/6 background ^17, or p38β MAPK muscle-specific knockout and p38β MAPK-floxed mice in the C57BL/6 background ^18. […] DMSO was injected accordingly as vehicle control. Plasmid encoding the p300-S12A mutant was transfected into TA muscle by electroporation on day 7 and day 14 following LLC implantation as described previously ^12. The contralateral TA was transfected with an empty vector as control. […] On day 21, mice were euthanized, and muscle samples were harvested for further analyses. For survival study, orthotopic implantation of KPC cells was performed based on the procedures by Zhu et al. ^19. Briefly, a longitudinal incision was made to open the abdominal cavity for pancreas exposure. Then, 2×10^6 KPC cells suspended in 20 μl PBS were injected to the tail of pancreas.
(§1) Western blotting. All procedures were adhered to our previous publication ^12. The following primary antibodies were used: anti-p300 (1:500, sc584, Santa Cruz), anti-C/EBPβ (1:1000, MA1-827, Thermo Fisher), anti-pT188-C/EBPβ (1:1000, 3084, Cell Signaling Technology), anti-TLR4 (1:500, sc16240, Santa Cruz), anti-p38α MAPK (1:500, sc271120, Santa Cruz), anti-p38s MAPK (1:500, 2339, Cell Signaling Technology), anti-p38 MAPK (1:1000, 9212, Cell Signaling Technology), anti-p-p38 MAPK (1:1000, 4511, Cell Signaling Technology), anti-MAFbx (1:1000, AP2041, ECM Bioscience), anti-UBR2 (1:500, NBP1-45243, Novus Biologicals), anti-LC3 (1:2000, NB100-2220, Novus Biologicals) and anti-MHC (1:1000, MAB4470, R&D Systems). Antibody against acetylated Lys-39 of C/EBPβ (1:2000) was generated as previously described ^12. […] (SEQ ID NO: 1). Data were normalized to α-Tubulin (Development Studies Hybridoma Bank at the University of Iowa, Iowa City, Iowa).
Fluorescence microscopy and histology study. C2C12 myotubes were stained with anti-MHC antibody (1:1000, MAB4470, R&D Systems) and anti-mouse Alexa Fluor® Plus 488 secondary antibody (1:200, A32723, ThermoFisher), and examined using a Zeiss Axioskop 40 microscope and a Zeiss Axiocam MRM camera system controlled by Axiovision Release 4.6 imaging software. Acquired images were edited using the Photoshop software. Myotube diameter was measured in MHC-stained myotubes as previously described ^12. Cross-sectional area of H&E-stained muscle sections was quantified by using the ImageJ software (NIH). Approximately 100 myofibers from each of 5 random views were quantified.

[2] = target: p38β MAPK (Homo sapiens, UniProt Q15759); details: p38β MAPK vs p38α MAPK; cited from earlier work
[3] = tested on: p38 MAPK; assay: p38 MAPK activation and catabolic response in primary human myotubes treated with H1299 cell-conditioned medium; format: cell-based; details: 500 nM
Description: as §1

[4] = tested on: KPC tumor-bearing mice; assay: survival and muscle wasting of mice bearing orthotopic KPC pancreatic tumor; format: in vivo
Protocol: Survival of KPC tumor-bearing mice was recorded and analyzed using the Kaplan-Meier survival curve. […] Forelimb grip strength of the mice was monitored over the course of the survival study. Data were analyzed by 2-way ANOVA. * signifies a statistically significant difference (p<0.05).
At the end point, both of DMSO or nilotinib-treated KPC tumor-bearing mice were euthanized. Tumors were isolated and weighted (left panel). Net body weight was measured (right panel).
Animal use. Experimental protocols were pre-approved by the institutional Animal Welfare Committee at the University of Texas Health Science Center at Houston. LLC cells (1×10^6 in […]) were injected subcutaneously into the flanks of 8-week-old male C57B16 mice, TLR4^−/− mice in the C57BL/6 background ^17, or p38β MAPK muscle-specific knockout and p38β MAPK-floxed mice in the C57BL/6 background ^18. […] DMSO was injected accordingly as vehicle control. Plasmid encoding the p300-S12A mutant was transfected into TA muscle by electroporation on day 7 and day 14 following LLC implantation as described previously ^12. The contralateral TA was transfected with an empty vector as control. Development of cachexia was monitored by body weight and forelimb grip strength test, and usually took place within 21 days after implantation. On day 21, mice were euthanized, and muscle samples were harvested for further analyses. For survival study, orthotopic implantation of KPC cells was performed based on the procedures by Zhu et al. ^19. Briefly, a longitudinal incision was made to open the abdominal cavity for pancreas exposure. Then, 2×10^6 KPC cells suspended in 20 μl PBS were injected to the tail of pancreas.

[5] = tested on: UBR2; assay: LCM-induced UBR2 upregulation in C2C12 myotubes, Western blotting; format: cell-based, Murine; details: LCM 8 hours, concentration-dependent
Description: as §1

[6] = tested on: p38α MAPK-mediated myogenic differentiation of C2C12 myoblasts; assay: myogenic differentiation of C2C12 myoblasts (MHC expression); format: cell-based, Murine; details: 96 hours differentiation
Description: as §1

[7] = humans, 24 hours after first PO administration of 50 mg; cited from earlier work
[8] = tested on: C2C12 myotubes; assay: LCM-induced loss of MHC and myotube mass in C2C12 myotubes; format: cell-based, Murine; details: 500 nM, LCM 72 hrs
Description: as §1
Fluorescence microscopy and histology study. […] Myotube diameter was measured in MHC-stained myotubes as previously described ^12. Cross-sectional area of H&E-stained muscle sections was quantified by using the ImageJ software (NIH). Approximately 100 myofibers from each of 5 random views were quantified.

[9] = tested on: p38β MAPK-mediated activation of p300 and C/EBPβ; assay: LCM-induced p300 activation (Ser-12 phosphorylation) and C/EBPβ acetylation in C2C12 myotubes, Western blotting; format: cell-based, Murine; details: LCM 2 h, concentration-dependent
Protocol: Cell cultures. Murine C2C12 myoblasts (American Type Culture Collection, ATCC) and human skeletal myoblasts (GIBCO®) were grown in growth medium (DMEM supplemented with 10% fetal bovine serum) at 37° C. under 5% CO2. Myoblast differentiation was induced at 85% confluence with differentiation medium (DMEM supplemented with 4% heat-inactivated horse serum in) for 96 hrs. Preconditioned medium from 48-hour cultures of Lewis lung carcinoma cells (National Cancer Institute, Frederick, Md.), H1299 human lung carcinoma cells (ATCC) or KPC cells (a gift from Dr. Elizabeth Jaffee of Johns Hopkins University) 14 were collected and centrifuged (1000×g, 5 min). Conditioned medium of non-tumorigenic NL20 cells (human lung epithelial cells, ATCC) was used as control. The supernatant was used to treat myotubes (25% final volume in fresh medium) when indicated and replaced every 24 h. […] All cell lines were tested negative for mycoplasma contamination. Cell culture-based experiments were replicated independently for 3 times.
Western blotting. All procedures were adhered to our previous publication ^12. […]

[10] = tested on: LLC tumor-bearing mice; details: as reported previously (ref 8); cited from earlier work

p38β MAPK, sequence (Q15759 whole entry): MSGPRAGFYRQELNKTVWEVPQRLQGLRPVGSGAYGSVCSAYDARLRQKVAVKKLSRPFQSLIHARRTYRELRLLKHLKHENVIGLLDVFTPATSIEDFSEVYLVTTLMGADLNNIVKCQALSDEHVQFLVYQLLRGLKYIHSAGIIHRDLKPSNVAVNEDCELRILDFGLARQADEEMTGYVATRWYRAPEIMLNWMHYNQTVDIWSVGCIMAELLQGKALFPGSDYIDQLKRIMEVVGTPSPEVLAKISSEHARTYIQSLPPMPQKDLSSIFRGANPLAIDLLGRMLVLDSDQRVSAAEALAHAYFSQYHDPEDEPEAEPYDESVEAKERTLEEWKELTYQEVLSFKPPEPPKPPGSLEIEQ

Cc1cn(-c2cc(NC(=O)c3ccc(C)c(Nc4nccc(-c5cccnc5)n4)c3)cc(C(F)(F)F)c2)cn1 [nilotinib]
LLC tumor growth [1]: without affecting tumor growth | activation of p300 (Ser-12 phosphorylation and Lys-39 acetylation of C/EBPβ) in TA muscle [1]: abolished | increase in autophagosome formation (LC3-II levels) [1]: blockade | loss of MHC in muscle [1]: blockade | loss of TA and EDL weight [1]: attenuated | loss of body weight [1]: protected against the loss of body weight | loss of muscle strength (grip strength) [1]: attenuated | myofiber cross-sectional area in TA [1]: preserved myofiber mass | upregulation of E3 ligases UBR2 and atroginl/MAFbx in TA muscle [1]: blockade | binding affinity for p38β MAPK higher than for p38α MAPK [2]: 3 fold | C/EBPβ phosphorylation on Thr-188 ([3]; 1 h): blockade | p38 MAPK activation by H1299 conditioned medium ([3]; 1 h): abrogated | upregulation of E3 ligase UBR2 ([3]; 8 h): blockade | median survival ([4]; 0.5 mg/kg/day i.p. from day 5 until end point): 31 days | tumor volume at the end point versus DMSO ([4]; 0.5 mg/kg/day i.p., at end point): without significant difference in tumor volume | loss of muscle function measured as grip strength ([4]; 0.5 mg/kg/day i.p., over the course of the survival study): attenuated | LCM-induced upregulation of UBR2 [5]: inhibited | MHC expression over the course of myoblast differentiation ([6]; 500 nM): did not alter MHC expression | serum concentration [7]: approximately 400 ng/ml | LCM-induced loss of myosin heavy chain (MHC) [8]: resistant | LCM-induced loss of myotube mass (myotube diameters) [8]: resistant | C/EBPβ acetylation on Lys-39 [9]: inhibited

Oc1ccc(-c2nc(-c3ccncc3)c(-c3ccc(F)cc3)[nH]2)cc1 [SB202190]
onset of myoblast differentiation (MHC expression at 24 and 48 hours) ([6]; 10 μM): delayed | LLC tumor-induced muscle wasting in mice [10]: attenuates
